In patent US10350262B2, “MCJ agonists and uses therefor” (priority 2015, dated 2019):
Non-standard residues stand in square brackets, D forms with d. No end group written: not given here. Cha = N[C@@H](CC1CCCCC1)C(=O)O

Key:
Molm13 cells [1] = assay: Viable cell number of Molm13 AML cells; type: cell-based; settings: 3 days
MCF7/siMCJ cells = assay: Confocal microscopy for doxorubicin accumulation; type: cell-based, human; settings: oligomycin 5 μM with doxorubicin 3 μM, 4 h; vs doxorubicin alone
Protocol: Confocal microscopy for doxorubicin accumulation. MCF7/siMCJ cells were seeded on BD Biocoat coverslips (BD Biosciences, Bedford, Mass.) the day before the treatment. At 20 h, oligomycin (5 μM) or medium was added to the cell. After 3 h, doxorubicin (3 μM) was added and cells were further incubated for 4 h. Cells were washed with PBS and fixed in 3.7% paraformaldehyde. […] For nuclear staining, DAPI (Molecular Probes, Eugene, Oreg.) was used. Cells were visualized by confocal microscopy (Zeiss LSM 510 META Confocal Laser Scanning Imaging System, Carl Ziess Microimaging Inc, Thronwood, N.Y.). The term: MCF7/siMCJ and siMCJ/MCF7 is used interchangeably herein. Experiments were performed to determine whether reducing mitochondrial respiration in cancer cells restores the cells' sensitivity to chemotherapeutic agents. […] MCF7/siMCJ cells were treated with doxorubicin alone or doxorubicin and oligomycin (an inhibitor of Complex V/ATP synthase) at a concentration of 5 μM for 4 h. Doxorubicin intrinsic fluorescence in the cells was viewed by confocal microscopy. The DAPI dye was used as a nuclear maker.

MCF7/ADR cells [2] = assay: Seahorse MitoStress assay, oxygen consumption rate (OCR); type: cell-based, human
Protocol: FIG. 14A-C provides graphs showing effect of MCJ agonist polypeptides on OCR and respiratory capacity of cells. […] Cells pretreated with medium alone (medium), TAT-N-MCJ-mts peptide (TAT peptide) (50 μM) (FIG. 14A) or MITO-N-MCJ peptide (Mito peptide) (25 μM) (FIG. 14B) for the last 9 h prior to the MitoStress assay as described elsewhere herein. Standard flow chart for the treatments as recommended by the manufacturer (Seahorse Bioscience, Billerica, Mass.) was used: oligomycin (O), FCCP (F) and rotenone and antimycin (R+A). […] Oligomycin was replaced by vehicle (buffer) or MITO-N-MCJ peptide.
Human breast cancer cell lines MCF7 cells with siRNA-mediated knockdown of MCJ (MCF7/siMCJ cells) have increased Complex I activity. Experiments were performed to examine the effect of MCJ on mitochondrial respiration using the Seahorse X24 analyzer and the MitoStress assay (used in examples herein according to manufacturer's protocols) that measures mitochondrial oxygen consumption rate (OCR), a well-accepted proxy for mitochondrial respiration (Seahorse Bioscience, North Billerica, Mass.). […] In addition, maximum respiratory capacity (determined after addition of the mitochondrial uncoupler FCCP) was also drastically higher in MCF7/siMCJ cells (FIG. 12A). Moreover, Seahorse MitoStress analysis of OCR in primary mammary tumor cells from MMTV-Py mice [Guy, C.
The agonist polypeptides were tested to determine whether they would restore particular MCJ functions and the effect of the agonist polypeptides in mitochondrial respiration was examined. […] OCR was determined by the Seahorse analyzer in MCF7/ADR cells and MCF7/ADR cells that were pretreated with the TAT-N-MCJ-mts peptide for 9 h.
Assays were performed to examine the effect of MITO-N-MCJ peptide on mitochondrial respiration when added directly on cells ongoing Seahorse mito-stress analysis. In this case, OCR was first measured at the basal level and then either vehicle (Seahorse buffer) or the MITO-N-MCJ peptide was added in one of the ports from Seahorse. […]

MCF7/ADR cells [3] = assay: Viable cell count of MCF7/ADR cells (Trypan blue); type: cell-based, human
Protocol: (§1) FIG. 15A provides results of Western blot analysis for MCJ in MCF7 cells and MCF7/ADR (ADR) cells. Actin was used as loading control. […] Viable cells were counted 2 days later.
FIG. 16A-B provides graphs showing response to MCJ agonists. […] Cells were harvested 2 days later and viable cells were counted. […] Mice were harvested at day 4. The size of a tumor over time was determined by caliper measurements, and is represented as a percentage relative to the initial size prior to the treatment. p<0.05 as determined by a paired t-test.
(§2) Cell Culture. MCF7 and MCF7/ADR cells were a kind gift from Dr. Ken Cowan (National Cancer Institute, Bethesda, Md.). MCF7/siMCJ cells were generated by stable transfection with a plasmid expressing a shRNA for MCJ (siMCJ) as described in Hatle, K. M., et al., Mol Cell Biol 27, 2952-2966 (2007). All cells were maintained at 37 C, 5% CO2 in RPMI-1640 (Life technologies, Inc., Gaithersburg, Md.) containing 5% FBS.
(§3) Cell count. Cells were trypsinized, washed, and resuspended in medium. Number of viable cells was measured by counting using Trypan blue dye to exclude dead cells (visualized as blue).
(§4) Doxorubicin and peptides treatment in vitro. Doxorubicin (Sigma-Aldrich) was used at 3 μM final concentration. The three different peptides described in the examples (SEQ ID NO: 2, 18 or 6) were resuspended at 10 mM stock concentration in PBS. The peptides were used a different concentration as indicated for each example (1, 10, or 50 μM). Cells were plated the day prior the treatment (18-20 h prior to the treatment). For treatments with peptides only, peptides were added to the plates at the indicated concentrations, and after 2 or 3 days (as indicated for each example) cells were trypsinized, resuspended, and counted. For the treatment with doxorubicin and peptides, cells were pretreated with the corresponding peptide for 4 h prior to adding doxorubicin.
MCF7/ADR cells were incubated (using standard procedures) for three days in media alone or in media plus three different MCJ based polypeptides each at a concentration of 50 μM in media. The cells of set one were incubated in media and served as a control set. The cells of set two were incubated in media that included a 50 μM concentration of a MCJ polypeptide without a targeting agent polypeptide. The amino acid sequence of the N-MCJ polypeptide without a targeting agent polypeptide was […] (SEQ ID NO:2). The cells of set three were incubated in media that included a 50 μM concentration of a TAT-N-MCJ polypeptide. The amino acid sequence of the TAT-N-MCJ polypeptide was: […] (SEQ ID NO:18). […]

Molm13 cells [4] = assay: Mitochondrial ROS (mROS) by PY1 staining, flow cytometry; type: cell-based; settings: 22 h
Protocol: (§5) FIG. 17A-D provides graphs of results showing MCJ agonist inhibition of AML. FIG. 17A-B show results when Molm13 cells (10^4 cells) were incubated in the presence of medium, TAT-N-MCJ-mts peptide (TAT) (25 μM), MITO-N-MCJ peptide (25 μM), AC220 (2 nM) or the combination of the peptides with AC220. Numbers of viable cells was measured after 3 days. […] The percentage of live cells negative for TMRE (TMREneg) is shown. […] The percentage of live PY1^+ cells is shown.
(§6) Experiments were also performed to assess the effect of MCJ agonists on mitochondrial membrane potential by staining with the TMRE dye. Given the more modest effects observed for TAT-N-MCJ-mts (FIG. 17A-B), 50 μM of this peptide was used in the experiments. […] AML cells are sensitive to the levels of reactive oxygen species (ROS), which are primarily generated in mitochondria as a result of electron leakage from the ETC. It was previously shown that MCJ can interfere with the formation of ETC respiratory supercomplexes [Hatle, K., et al., (2013) Mol Cell boil 33:2302-2314] that are formed to facilitate electron transport between complexes and minimize electron leakage [see Acin-Perez, R. et al., (2008) Mol Cell 32:529-539 and Lapuente-Brun, E. et al., (2013) Science 340:1567-1570]. […] The effect of the MCJ agonists was already observed after 5 h of treatment. […]

MCF7 cells = assay: Viable cell count of MCF7 cells (Trypan blue); type: cell-based, human; settings: 25 μM, 2 days
Excerpt: as §1, §2, §3, §4
MCF7 cells and MCF7/ADR cells were incubated (using standard procedures) for two days in media alone or in media that included different concentrations of the TAT-N-MCS-MTS polypeptide having the amino acid sequence set forth as: […]

Molm13 cells [5] = assay: Mitochondrial membrane potential by TMRE staining, flow cytometry; type: cell-based; settings: 22 h
Protocol: as §5, §6

MCF7/ADR cells [6] = assay: Bright field microscopy of MCF7/ADR cells; type: cell-based, human; settings: 50 μM, two days; relative to medium only
Protocol: FIG. 3 provides photomicrographic images of MCF7/ADR cells that were incubated for two days in column (1) media alone; column (2) media that included a 50 μM concentration of an N-MCJ polypeptide (SEQ ID NO:2); column (3) media that included a 50 μM concentration of the TAT-N-MCJ polypeptide (SEQ ID NO:18); and column (4) media that included a 50 μM concentration of the TAT-N-MCJ-MTS polypeptide (SEQ ID NO:6).
Bright Field Microscopy. Live cells were imaged at an inverted bright field microscope (Leica Microsystems). 400× magnification was used.

[7] = 25 μM in combination with AC220 2 nM

CC(C)(C)c1cc(NC(=O)Nc2ccc(-c3cn4c(n3)sc3cc(OCCN5CCOCC5)ccc34)cc2)no1 [AC220, reference compound]
viability (number of viable cells) (Molm13 cells [1]; AC220 2 nM): effective at inducing Molm13 cell death

CC[C@H]1/C=C/C=C/C[C@@H](C)[C@H](O)[C@@](C)(O)C(=O)[C@@H](C)[C@H](O)[C@@H](C)C(=O)[C@@H](C)[C@H](O)[C@@H](C)/C=C/C(=O)O[C@@H]2[C@H](C)[C@H](CC1)O[C@]1(CC[C@H](C)[C@H](C[C@@H](C)O)O1)[C@H]2C [oligomycin]
doxorubicin accumulation (intrinsic fluorescence, nucleus) (MCF7/siMCJ cells): doxorubicin accumulation (in the nucleus) only in MCF7/siMCJ cells treated with doxorubicin and oligomycin

FxRFxKFxRFxKMAARGVIAPVGESLRYAEYL ([Cha]R[Cha]K[Cha]R[Cha]KMAARGVIAPVGESLRYAEYL) [MITO-N-MCJ, Fx is cyclohexylalanine]
effect on OCR (MCF7/ADR cells [2]; 25 μM, pretreated 9 h, compared with TAT-N-MCJ-mts): even more pronounced | mitochondrial respiration (OCR) (MCF7/ADR cells [2]; peptide added directly during the assay, OCR measured during 180 min, vs vehicle): marked reduction of mitochondrial respiration | maximum respiratory capacity (after FCCP) (MCF7/ADR cells [2]; peptide added directly during the assay, vs vehicle only): severely compromised | expansion of cells (viable cells) (MCF7/ADR cells [3]; 25 μM, peptide by itself, 2 days): drastic effect in limiting the expansion of these resistant cells | efficacy relative to the TAT-N-MCJ peptide (MCF7/ADR cells [3]; MITO-N-MCJ greater than TAT peptide): 2-3 times | production of mROS (live PY1+ cells) (Molm13 cells [4]; [7]): clearly synergized with AC220 to cause a massive production of mROS | production of mROS (live PY1+ cells) (Molm13 cells [4]; 25 μM): could induce the production of mROS | effect on viable cells (MCF7 cells): neither of the two MCJ agonists had an effect on MCF7 cells | mitochondrial membrane potential (TMRE negative live cells) (Molm13 cells [5]; [7]): the most remarkable effect | mitochondrial membrane potential (TMRE negative live cells) (Molm13 cells [5]; 25 μM): caused a loss of mitochondrial membrane potential (TMRE negative cells) in a fraction of Molm13 cells | viability (number of viable cells) (Molm13 cells [1]; peptide 25 μM alone): profound effect on Molm13 cells, leading to substantial cell death | cells refractory to AC220 (number of viable cells) (Molm13 cells [1]; peptide 25 μM in combination with AC220 2 nM): effectively eliminated this resistant group

MAARGVIAPVGESLRYAEYL (listed as Homo sapiens) [N-MCJ]
proliferation / cells attached to the culture plate (photomicrographs) (MCF7/ADR cells [6]): did not affect proliferation of the cells

YGKKRRQRRGMAARGVIAPVGESLRYAEYL [TAT-N-MCJ]
expansion of cells (viable cells) (MCF7/ADR cells [3]; control peptide lacking the mts): had no effect | proliferation / cells attached to the culture plate (photomicrographs) (MCF7/ADR cells [6]): did not affect proliferation of the cells
